# Measured values: US20230090255A1, “MAGL INHIBITOR, PREPARATION METHOD THEREFOR AND USE THEREOF” (LUNAN PHARMACEUTICAL GROUP CORPORATION, priority 2019, published 2023)
# How the values were obtained:
# [1] = target: T1, recombinant human protein MAGL (Homo sapiens, UniProt Q99685); experiment: MAGL enzyme analysis (Cayman MAGL inhibitor screening kit); type: biochemical; conditions: 4-nitrophenylacetic acid substrate, absorbance 410 nm, read-out: MAGLXIC50
# T1 construct: purchased Cayman
# T1 sequence (Q99685 1-303): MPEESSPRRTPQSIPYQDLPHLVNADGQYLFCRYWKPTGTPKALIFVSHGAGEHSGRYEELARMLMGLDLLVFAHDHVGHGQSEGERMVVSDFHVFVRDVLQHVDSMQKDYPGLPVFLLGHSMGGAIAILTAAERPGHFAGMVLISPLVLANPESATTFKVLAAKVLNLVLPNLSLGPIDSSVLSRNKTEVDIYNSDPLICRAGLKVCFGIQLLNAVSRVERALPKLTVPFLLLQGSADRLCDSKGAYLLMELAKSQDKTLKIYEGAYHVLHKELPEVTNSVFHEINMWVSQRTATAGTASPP
# [2] = system: mice pain response induced by hot plate; experiment: Mice pain response induced by hot plate; type: in vivo, ICR mice; conditions: for pain thresholds of the thermal-stimulus mice, in words: compared with the model group; for Pain threshold: hot plate 55°C
# Method: Female ICR mice (20±2) g were placed on an intelligent hot plate at 55±0.5° C., and latency (s) that the plantar of mice touched the hot plate until the occurrence of a hind paws licking response served as a pain threshold indicator; the mice (response latency <5 s or >30 s) or jumping mice were eliminated.
# Grouping and administration were the same as those in Example 40.
# The mice were continuously administered intragastrically for 7 consecutive days; the pain threshold of each group of mice was respectively determined once at 30, 60, 90 and 120 min after the final administration; the pain threshold greater than 60 s was calculated by 60 s.
# [3] = system: irritable bowel syndrome rats; experiment: Irritable bowel syndrome rats induced by early maternal separation; type: in vivo, SD rats; parameters: AWR scoring: scale not given here; conditions: for Colon 5-HT / Serum 5-HT / AWR scoring: IBS rats; for 5-HT level in colon and serum, in words / AWR scoring, in words: compared with the model group
# Method: The newborn SD male rats were separated from the mother rat in lactation period for 3 h every day on the 2nd to the 21st day after the birth of the newborn SD rats, namely, the mother rat in lactation period was taken out of the cage at 8:30 a.m., and then the newborn rats were removed from the initial cage and put to another separate cage, then the cage was transferred to an adjacent room, then the newborn rats were returned to the initial cage 3 h later, namely, at 11:30 such that the newborn rats and the mother rat got together; the newborn rats were weaned on the 22nd day after birth and separated from the initial cage on the 30th day, grouped on the 60th day, and administered, 20 d in total.
# Intragastric administration was performed within the administration period once a day with continuous administration for 20 d.
# Test indicators: abdominal withdrawal reflex (AWR); test method: rats were fasted 18 h before the experiment and drank water freely, and narcotized with diethyl ether; then an air sac coated with paraffin oil was inserted into the rats’ colorectum for 4.0 cm, and a catheter outside the anus was fixed at the root of the rat tail with an adhesive tape, and connected with an injection syringe and a sphygmomanometer via three links. The rats were put to an organic glass inspection box (20 cmx12 cm×9 cm), after the rats were awake and fully adapted to the environment for 30 min, the experiment was started. 20, 40 and 60 mm Hg of pressure were respectively applied on the rats, and continuous expansion was performed for 20 s each time with a stimulus interval of 4 min; each pressure was performed for 3 times repeatedly for AWR scoring.
# At the end of the experiment, the animals were dissected and weighed, and narcotized to take blood, then the content of 5-HT in serum was determined by high performance liquid chromatography. […] slightly with 0.5% sodium carboxymethylcellulose, and then sucked dry with a filter paper, and placed into a cryogenic tube, and preserved at -20° C. for further use, […] chromatography.
# [4] = system: mice writhing caused by acetic acid; experiment: Mice writhing caused by acetic acid; conditions: for Writhing times: 1 h before 0.7% acetic acid ip, within 20 min; for Latent time: time to first writhing; for Inhibition ratio: writhing inhibition
# Method: Each compound was prepared into a suspension by 0.5% sodium carboxymethylcellulose respectively, and then set according to the dose, and each administration group was administered intragastrically; the model group was administered intragastrically an equal volume of 0.5% sodium carboxymethylcellulose.
# Mice were intraperitoneally injected with acetic acid to cause a large area and more lasting painful stimuli in deep enterocoelia, causing mice to produce writhing responses. After being administered for 1 h, each dose group was intraperitoneally injected with 0.7% acetic acid-normal saline solution (0.1 ml/10 g).
# The time (pain latent time) that the mice started to appear writhing after being intraperitoneally injected with acetic acid was recorded.
# The writhing response times of each mouse within 20 min were recorded after injecting acetic acid to cause pain, and then, the writhing inhibition ratio of each administration group was calculated.
# Writhing inhibition ratio = [(writhing times of the control group -writhing times of the administration group)/writhing times of the control group] × 100%
# Experimental data is shown by x±s and subjected to variance analysis by SPSS 15.0 software.
# [5] = system: mice forced swimming test; experiment: Mice forced swimming test; type: in vivo, ICR mice; conditions: forced swimming, 6 min; 5 mg/kg intragastric once per day 10 d, 1 h after final administration
# Method: Male ICR mice having a body weight of 18-22 g. The animals were active on a schedule of normal illumination for 12 h and in the dark for 12 h. Environmental temperature and relative humidity were relatively kept for 22±1° C. and 55±5%.
# There were 7 groups of laboratory mice, 10 pieces each group, set as a control group (normal saline), a positive control group (fluoxetine hydrochloride capsule, 5 mg/kg), 5 MAGLZ-II series of administration treatment groups: MAGLZ-II-06, MAGLZ-II-07, MAGLZ-II-11, MAGLZ-II-17 and MAGLZ-II-18, respectively, with an administration concentration of 5 mg/kg.
# All medicaments were used once per day via intragastric administration with a dose of 20 mL/kg (body weight), lasting for 10 d. 1 h later after the final administration, the detection of animal behaviors was started.
# Mice forced swimming test was performed according to the method established by Porsolt (Porsolt R D. Behavioural despair in mice: A primary screening test for antidepressants[J]. Arch. Int. Pharmacolodyn. 1977, 229). […] Each mouse was judged as still when stopped struggling, kept suspension in water and only made necessary movement to keep the head above the water.
# All data are shown by x̅±SD, and the comparison among groups is analyzed by one-way variance.
# [6] = high dose 30 mg/kg ig 7 d, 30 min after final administration
# [7] = high dose 30 mg/kg ig 7 d, 60 min
# [8] = high dose 30 mg/kg ig 7 d, 90 min
# [9] = high dose 30 mg/kg ig 7 d, 120 min
# [10] = low dose 7.5 mg/kg ig 7 d, 30 min after final administration
# [11] = low dose 7.5 mg/kg ig 7 d, 60 min
# [12] = low dose 7.5 mg/kg ig 7 d, 90 min
# [13] = low dose 7.5 mg/kg ig 7 d, 120 min
# [14] = middle dose 15 mg/kg ig 7 d, 30 min after final administration
# [15] = middle dose 15 mg/kg ig 7 d, 60 min
# [16] = middle dose 15 mg/kg ig 7 d, 90 min
# [17] = middle dose 15 mg/kg ig 7 d, 120 min
# [18] = high dose 30 mg/kg ig 20 d, 20 mm Hg
# [19] = high dose 30 mg/kg ig 20 d, 40 mm Hg
# [20] = high dose 30 mg/kg ig 20 d, 60 mm Hg
# [21] = low dose 7.5 mg/kg ig 20 d, 20 mm Hg
# [22] = low dose 7.5 mg/kg ig 20 d, 40 mm Hg
# [23] = low dose 7.5 mg/kg ig 20 d, 60 mm Hg
# [24] = middle dose 15 mg/kg ig 20 d, 20 mm Hg
# [25] = middle dose 15 mg/kg ig 20 d, 40 mm Hg
# [26] = middle dose 15 mg/kg ig 20 d, 60 mm Hg
structure (smiles),measurement,setting,value
Cn1c(C(=O)N2CCC(C(=O)Nc3cccc(Cl)c3)CC2)cc2ccccc21 [MAGLZ-II-18 (c)],IC50,[1],2.6 nM
same,"pain thresholds of the thermal-stimulus mice, in words",[2],significantly extend
same,Pain threshold,[2]; [6],29.23 ± 7.95 s
same,Pain threshold,[2]; [7],30.24 ± 7.80 s
same,Pain threshold,[2]; [8],30.66 ± 8.35 s
same,Pain threshold,[2]; [9],29.87 ± 7.43 s
same,Pain threshold,[2]; [10],23.98 ± 6.89 s
same,Pain threshold,[2]; [11],24.75 ± 6.91 s
same,Pain threshold,[2]; [12],25.16 ± 8.87 s
same,Pain threshold,[2]; [13],24.28 ± 7.17 s
same,Pain threshold,[2]; [14],26.82 ± 7.99 s
same,Pain threshold,[2]; [15],28.52 ± 6.18 s
same,Pain threshold,[2]; [16],28.66 ± 8.73 s
same,Pain threshold,[2]; [17],27.88 ± 7.74 s
same,Colon 5-HT,[3]; high dose 30 mg/kg ig 20 d,14.34±2.40^∗∗∗ µg/mg
same,Serum 5-HT,[3]; high dose 30 mg/kg ig 20 d,29.03±5.29^∗∗∗ µg/ml
same,AWR scoring,[3]; [18],1.38±0.51^∗∗ ∗
same,AWR scoring,[3]; [19],2.20±0.57^∗∗∗
same,AWR scoring,[3]; [20],2.96±0.70^∗∗∗
same,Colon 5-HT,[3]; low dose 7.5 mg/kg ig 20 d,16.84 ± 2.87 µg/mg
same,Serum 5-HT,[3]; low dose 7.5 mg/kg ig 20 d,34.2 ± 5.37 µg/mL
same,AWR scoring,[3]; [21],2.28±0.58
same,AWR scoring,[3]; [22],3.20±0.43
same,AWR scoring,[3]; [23],3.61±0.24
same,Colon 5-HT,[3]; middle dose 15 mg/kg ig 20 d,14.99±2.90^∗∗ µg/mg
same,Serum 5-HT,[3]; middle dose 15 mg/kg ig 20 d,31.88±4.40^∗∗ µg/ml
same,AWR scoring,[3]; [24],1.79±0.23^∗∗ ∗
same,AWR scoring,[3]; [25],2.87±0.65^∗∗
same,AWR scoring,[3]; [26],3.27±0.51^∗∗
same,"5-HT level in colon and serum, in words",[3],significantly decrease
same,"AWR scoring, in words",[3],significantly decrease
same,"latent time, in words",[4]; compared with the model group,extend
same,"mice writhing times caused by acetic acid, in words",[4]; compared with the model group,significantly decrease
same,Writhing times,[4]; high dose 30 mg/kg ig,19.9±12.2
same,Latent time,[4]; high dose 30 mg/kg ig,373.6 ± 114.0 s
same,Inhibition ratio,[4]; high dose 30 mg/kg ig,49.4%
same,Writhing times,[4]; low dose 7.5 mg/kg ig,28.3±11.9
same,Latent time,[4]; low dose 7.5 mg/kg ig,263.5 ± 77.7 s
same,Inhibition ratio,[4]; low dose 7.5 mg/kg ig,28.0%
same,Writhing times,[4]; middle dose 15 mg/kg ig,24.9±12.2
same,Latent time,[4]; middle dose 15 mg/kg ig,312.7 ± 90.9 s
same,Inhibition ratio,[4]; middle dose 15 mg/kg ig,36.6%
O=C(Nc1cccc(Cl)c1)C1CCN(C(=O)c2cc3ccccc3[nH]2)CC1 [MAGLZ-II-18],IC50,[1],670 nM
same,Accumulated immobility time,[5],81.71±38.12 S
same,"pain thresholds of the thermal-stimulus mice, in words",[2],significantly extend
same,Pain threshold,[2]; [6],26.73 ± 7.37 s
same,Pain threshold,[2]; [7],27.22 ± 7.29 s
same,Pain threshold,[2]; [8],27.86 ± 7.93 s
same,Pain threshold,[2]; [9],27.62 ± 10.01 s
same,Pain threshold,[2]; [10],26.33 ± 7.52 s
same,Pain threshold,[2]; [11],26.74 ± 7.05 s
same,Pain threshold,[2]; [12],27.16 ± 7.32 s
same,Pain threshold,[2]; [13],26.64 ± 10.03 s
same,Pain threshold,[2]; [14],26.41 ± 7.53 s
same,Pain threshold,[2]; [15],27.09 ± 7.53 s
same,Pain threshold,[2]; [16],27.58 ± 7.71 s
same,Pain threshold,[2]; [17],27.38 ± 9.97 s
same,Colon 5-HT,[3]; high dose 30 mg/kg ig 20 d,14.33±2.10^∗∗∗ µg/mg
same,Serum 5-HT,[3]; high dose 30 mg/kg ig 20 d,30.86±5.28^∗∗∗ µg/ml
same,AWR scoring,[3]; [18],1.87±0.36^∗∗ ∗
same,AWR scoring,[3]; [19],2.6±0.54^∗∗∗
same,AWR scoring,[3]; [20],3.09±0.34^∗∗∗
same,Colon 5-HT,[3]; low dose 7.5 mg/kg ig 20 d,21.91 ± 2.46 µg/mg
same,Serum 5-HT,[3]; low dose 7.5 mg/kg ig 20 d,35.73 ± 3.32 µg/mL
same,AWR scoring,[3]; [21],2.59±0.33
same,AWR scoring,[3]; [22],3.26±0.39
same,AWR scoring,[3]; [23],3.65±0.23^∗
same,Colon 5-HT,[3]; middle dose 15 mg/kg ig 20 d,14.89±3.19^∗∗ µg/mg
same,Serum 5-HT,[3]; middle dose 15 mg/kg ig 20 d,29.12±7.05^∗∗ µg/ml
same,AWR scoring,[3]; [24],2.29±0.36^∗∗
same,AWR scoring,[3]; [25],3.01±0.40^∗∗
same,AWR scoring,[3]; [26],3.3±0.45^∗∗
same,"5-HT level in colon and serum, in words",[3],significantly decrease
same,"AWR scoring, in words",[3],significantly decrease
same,Writhing times,[4]; high dose 30 mg/kg ig,15.8±15.3
same,Latent time,[4]; high dose 30 mg/kg ig,410.9 ± 186.5 s
same,Inhibition ratio,[4]; high dose 30 mg/kg ig,59.8%
same,Writhing times,[4]; low dose 7.5 mg/kg ig,25.0±13.5
same,Latent time,[4]; low dose 7.5 mg/kg ig,318.7 ± 120.2 s
same,Inhibition ratio,[4]; low dose 7.5 mg/kg ig,36.4%
same,Writhing times,[4]; middle dose 15 mg/kg ig,21.8±12.4
same,Latent time,[4]; middle dose 15 mg/kg ig,381.4 ± 127.1 s
same,Inhibition ratio,[4]; middle dose 15 mg/kg ig,44.5%
